Experimental findings from PubChem BioAssay AID651630 (Sanford-Burnham Center for Chemical Genomics, 2012) are described below.

Molecules are shown by their SMILES. The source made the active and inactive calls.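 The calls were made as follows: active = lipid-stain IC50 at or below a set limit, with nuclear-stain toxicity IC50 at least five times higher; inactive = the rest.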

For experiment [1], the system named is DAPI. As to the kind of experiment: TAG lipid buildup inhibition with viability readout – cell-based, panel, Nile Red and DAPI fluorescence, H9c2, dose response (AID 651630).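 Also: cells exposed to compound overnight before fixation and staining.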 The note with it: H9c2 cells, DAPI nuclear fluorescence (cytotoxicity counter-readout), oleic acid.
The subject of experiment [2] is TAG. The experiment is described as above. The note with it: H9c2 cells, Nile Red TAG fluorescence, oleic acid.

`CCOC(=O)C(C)Oc1cccc2c(=O)n(CC(=O)NCc3ccc4c(c3)OCO4)ccc12` (stereo not drawn): the IC50 cytotoxicity (DAPI nuclear signal decrease) is > 25 µM (inactive) in experiment [1] (mean of runs), more than 25 µM in experiment [1] (run 1) and more than 25 µM in experiment [1] (run 2). The figures for the IC50 in experiment [2] (mean of runs), in experiment [2] (run 1) and in experiment [2] (run 2) were 18 µM (inactive), 18.2 µM and 17.9 µM, respectively.

For `N#CC1C=Cc2c(ccc3ccccc23)N1C(=O)c1ccccc1` (stereo not drawn), the IC50 cytotoxicity (DAPI nuclear signal decrease) was > 25 µM (inactive) in experiment [1] (mean of runs), more than 25 µM in experiment [1] (run 1) and more than 25 µM in experiment [1] (run 2). Besides, the results for the IC50 in experiment [2] (mean of runs), in experiment [2] (run 1) and in experiment [2] (run 2) were > 25 µM (inactive), more than 25 µM and more than 25 µM, respectively.

On to `CCOC(=O)c1c(CSC(=N)N)n(-c2ccccc2)c2cc(Br)c(OC(C)=O)cc12`, for which the IC50 cytotoxicity (DAPI nuclear signal decrease) was > 25 µM (inactive) in experiment [1] (mean of runs), more than 25 µM in experiment [1] (run 1) and more than 25 µM in experiment [1] (run 2). Further, the IC50 is 18 µM (inactive) in experiment [2] (mean of runs), 17.1 µM in experiment [2] (run 1) and 18.9 µM in experiment [2] (run 2).

With `Nc1c(C(=O)NC2CCCC2)c2nc3ccccc3nc2n1/N=C/c1cccnc1`, the figures for the IC50 cytotoxicity (DAPI nuclear signal decrease) in experiment [1] (mean of runs), in experiment [1] (run 1) and in experiment [1] (run 2) were > 25 µM (inactive), more than 25 µM and more than 25 µM, respectively. The IC50 was 19 µM (inactive) in experiment [2] (mean of runs), 15 µM in experiment [2] (run 1) and 23 µM in experiment [2] (run 2).

In the case of `CCCSc1ccc2nc(NC(=O)OC)[nH]c2c1`, the IC50 cytotoxicity (DAPI nuclear signal decrease) was > 25 µM (inactive) in experiment [1] (mean of runs), more than 25 µM in experiment [1] (run 1) and more than 25 µM in experiment [1] (run 2). The IC50 is > 25 µM (inactive) in experiment [2] (mean of runs), more than 25 µM in experiment [2] (run 1) and more than 25 µM in experiment [2] (run 2).

As to `CCC(C)NCCOCCOc1ccc(Cl)c2ccccc12` (stereo not drawn), the IC50 cytotoxicity (DAPI nuclear signal decrease) was > 25 µM (inactive) in experiment [1] (mean of runs), more than 25 µM in experiment [1] (run 1) and more than 25 µM in experiment [1] (run 2). Also, the half-maximal inhibitory concentration (IC50) in experiment [2] (run 1) is more than 25 µM; in experiment [2] (run 2) it was 17.7 µM.

In the case of `COC(=O)c1ccc(/C=C/c2c(-c3ccsc3)oc3ccc(N4CCOCC4)cc23)cc1`, the IC50 cytotoxicity (DAPI nuclear signal decrease) in experiment [1] (mean of runs) is > 25 µM (inactive); in experiment [1] (run 1), more than 25 µM; in experiment [1] (run 2), more than 25 µM. Besides, the IC50 was 16.9 µM (inactive) in experiment [2] (mean of runs), 25 µM in experiment [2] (run 1) and 8.72 µM in experiment [2] (run 2).

As to `CCCC[C@H](CN[C@@H](CNC)[C@H](C)CC)NCCC12CCC(CC1)C2`, the results for the IC50 cytotoxicity (DAPI nuclear signal decrease) in experiment [1] (run 1) and in experiment [1] (run 2) were 17.8 µM and more than 25 µM, respectively. Besides, the results for the IC50 in experiment [2] (mean of runs), in experiment [2] (run 1) and in experiment [2] (run 2) were > 25 µM (inactive), more than 25 µM and more than 25 µM, respectively.

Take `CC(C)(C)NC(=O)C(c1ccc(-c2ccccc2)cc1)N(C[C@H]1CC[C@@H]([C@@H]2CC[C@H](CO)O2)O1)C(=O)c1ccc2ccccc2c1` (stereo partly drawn): the IC50 cytotoxicity (DAPI nuclear signal decrease) was > 25 µM (inactive) in experiment [1] (mean of runs), more than 25 µM in experiment [1] (run 1) and more than 25 µM in experiment [1] (run 2). Further, the IC50 in experiment [2] (mean of runs) was 5.56 µM; in experiment [2] (run 1), 4.96 µM; in experiment [2] (run 2), 6.16 µM.

On to `COc1ccccc1NC(=O)N1CCC(c2nc3cc(C)c(C)cc3[nH]2)CC1`, for which the values for the IC50 cytotoxicity (DAPI nuclear signal decrease) in experiment [1] (mean of runs), in experiment [1] (run 1) and in experiment [1] (run 2) were > 25 µM (inactive), more than 25 µM and more than 25 µM, respectively. Further, the results for the IC50 in experiment [2] (mean of runs), in experiment [2] (run 1) and in experiment [2] (run 2) were > 25 µM (inactive), more than 25 µM and more than 25 µM, respectively.
